The source of these data is US20220313652A1, “USE OF COMPOUND OR PHARMACEUTICALLY ACCEPTABLE SALT, DIMER OR TRIMER THEREOF IN MANUFACTURE OF MEDICAMENT FOR TREATING CANCER” (priority 2020, published 2022).

The subject of data set [1] is liver cancer HepG2 cells, colorectal cancer LoVo, HT29, DLD1, SW480, and HCT116 cells. Put plainly: Growth inhibition, Lenvatinib alone vs Sotagliflozin combined with Lenvatinib. Conditions: Sotagliflozin at a safe dose; variety of cell lines. The class given is cell-based. From the text:
Therefore, the effect of the combination in the safe concentration range of Sotagliflozin is better than the effect of each single agent. It is worth mentioning that the ability of Sotagliflozin in the combination to enhance the efficacy of VEGFR-targeting TKI drugs is not limited to a single drug of Apatinib.

The next data set has as its system lung cancer A549 cells. Put plainly: Tumor treatment experiment in A549 tumor cell-bearing nude mice.
Data set [2] relates to prostate cancer DU145 cells. Description: MTT inhibitory effect of Sotagliflozin on DU145 cells. The class given is cell-based. Conditions: 48 hours. On the procedure: (§1) Prostate cancer DU145 cells, breast cancer MCF-7 cells, esophageal cancer KYSE30 cells, gastric cancer HGC-27 cells, cholangiocarcinoma RBE cells, ovarian cancer SKOV3 cells, and cervical cancer Hela cells were used to verify the inhibitory effect of Sotagliflozin on tumor cells. After growing to 80% density, the cells were trypsinized, passaged and plated in a 96-well plate with 5000 cells per well. After 24 hours, the medium was replaced with a medium containing the corresponding concentration of drug. After 48 hours, the absorbance at each concentration was detected by the MTT method.
(§2) The experiment included the following groups:
(§3) Control group: cells were cultured in normal culture medium without drug added.
(§4) Sotagliflozin test group: cells were treated by adding Sotagliflozin at different concentration to each culture medium.
(§5) After incubation, the cell growth inhibition rate was calculated by dividing the absorbance value at each concentration by the absorbance value of the control group. In the figures, the concentration of Sotagliflozin is taken as the abscissa and the cell growth inhibition rate is taken as the ordinate.

In data set [3] the test system is esophageal cancer KYSE30 cells. Description: MTT inhibitory effect of Sotagliflozin on KYSE30 cells. The class given is cell-based. Conditions: 48 hours. How it is done:
as §1, §2, §3, §4, §5

Data set [4] deals with cervical cancer HeLa cells. Put plainly: MTT inhibitory effect of Sotagliflozin on HeLa cells. The following applies: 48 hours. Format: cell-based. On the procedure:
as §1, §2, §3, §4, §5

The test system of data set [5] is lung cancer cell line A549. Put plainly: MTT growth inhibition / IC50 on lung cancer cell line A549. The class given is cell-based.
Excerpt: According to the tissue distribution characteristics of EGFR and SGLT1/2, the targets of Gefitinib and Sotagliflozin, the followings cells were selected for experimental verification: lung cancer cell line A549; colorectal cancer cell line LoVo, HT29, SW620, HCT116; cervical cancer HeLa; ovarian cancer SKOV3; gastric cancer HGC27; cholangiocarcinoma RBE; esophageal cancer KYSE30, and the like. After growing to 80% density, the cells were trypsinized, passaged and plated in a 96-well plate with 5000 cells per well. After 24 hours, the medium was replaced with a medium containing the corresponding concentration of drug. After 48 hours, the absorbance at each concentration was detected by the MTT method.
as §2
Sotagliflozin test group (FIG. 2-a-2): cells were treated by adding Sotagliflozin alone at 6 different concentrations, 0 μM, 10 μM, 30 μM, 40 μM, […] respectively, to the culture medium, and cell survival rate was measured after […] of incubation.

Data set [6] concerns normal human umbilical cord epithelial cells.
For data set [7], the system named is ovarian cancer SKOV3 cells. Put plainly: MTT inhibitory effect of Sotagliflozin on SKOV3 cells. Conditions: 48 hours. Format: cell-based. How it is done:
as §1, §2, §3, §4, §5

Data set [8] relates to cholangiocarcinoma RBE cells. Put plainly: MTT inhibitory effect of Sotagliflozin on RBE cells. The class given is cell-based. The following applies: 48 hours. On the procedure:
as §1, §2, §3, §4, §5

In data set [9] the test system is liver cancer cell line HepG2. Description: MTT growth inhibition / IC50 on liver cancer cell line HepG2. The class given is cell-based. On the procedure: After growing to 80% density, the cells were trypsinized, passaged and plated in a 96-well plate with 5000 cells per well. […] After 48 hours, the absorbance at each concentration was detected by the MTT method.

Data set [10] deals with breast cancer MCF-7 cells. Put plainly: MTT inhibitory effect of Sotagliflozin on MCF-7 cells. The class given is cell-based. The following applies: 48 hours. On the procedure: as §1, §2, §3, §4, §5
Data set [11] has as its system gastric cancer HGC-27 cells. Description: MTT inhibitory effect of Sotagliflozin on HGC-27 cells. The class given is cell-based. Conditions: 48 hours. How it is done:
as §1, §2, §3, §4, §5

For data set [12], the system named is liver cancer cell line HepG2; colorectal cancer cell line LoVo, HT29, SW620, SW480. Put plainly: MTT growth inhibition, Apatinib alone vs Apatinib+Sotagliflozin on tumor cell lines. The class given is cell-based. The following applies: Apatinib 5-30 μM alone or with Sotagliflozin 20 μM, 48 hours. From the text: After obtaining the effectiveness of Gefitinib in Example 1, the present disclosure further validated another VEGFR-targeting TKI drug, Apatinib. According to the tissue distribution characteristics of VEGFR and SGLT1/2, the targets of Apatinib and Sotagliflozin, the followings cells were selected for experimental verification: liver cancer cell line HepG2; colorectal cancer cell line LoVo, HT29, SW620, SW480; cervical cancer HeLa; ovarian cancer SKOV3; gastric cancer HGC27; cholangiocarcinoma RBE; esophageal cancer KYSE3, and the like. After growing to 80% density, the cells were trypsinized, passaged and plated in a 96-well plate with 5000 cells per well. After 24 hours, the medium was replaced with a medium containing the corresponding concentration of Apatinib, Sotagliflozin, or the combination of Apatinib and Sotagliflozin. After 48 hours, the absorbance at each concentration was detected by the MTT method. The experiment included the following groups: Control group: cells were cultured in normal culture medium without drug added. […] The cell growth inhibition rate was calculated by dividing the absorbance value at each concentration by the absorbance value of the control group. […] In the figures, the concentration of Apatinib is taken as the abscissa and the cell growth inhibition rate is taken as the ordinate.

Where [13] appears, read: A549 tumor-bearing nude mice, gavage once every two days, 40 days.

Entries after “also recorded” stand apart in the source; their conditions may differ. Where two headings read alike, the source gives them in different places.

Procedure for lung cancer A549 cells: After growing to the logarithmic phase, A549 cells were collected and resuspended in serum-free DMEM medium to 5×10^7 cells per ml. Each mouse was inoculated with 100 μl of 5×10^6 cells, and the tumor size was measured 19 days later. Mice were grouped according to the tumor size, and the average tumor size in each group was the same. Mice were administered after grouping.
The dose of Gefitinib was 100 mg per kilogram according to the reported dose for the treatment of A549 xenograft tumor in previous studies. The two drugs were administered by gavage, consistent with the current oral mode in clinical use. The dosing cycle was once every two days. The tumor size was measured every two days. After 40 days of administration, the test was ended, and the tumor was removed and weighed.

Turning to `COc1cc2nccc(Oc3ccc(NC(=O)NC4CC4)c(Cl)c3)c2cc1C(N)=O` [Lenvatinib], in data set [1], the “effect of addition of Sotagliflozin on inhibitory effect of Lenvatinib” value is “enhanced the inhibitory effect”.
Regarding `COc1cc2ncnc(Nc3ccc(F)c(Cl)c3)c2cc1OCCCN1CCOCC1` [Gefitinib], in the data set on lung cancer A549 cells (mouse, in vivo), the Average tumor volume is 504.8 and the “Tumor volume ratio of each group to the control group” value is on record as 0.4881.
Take Sotagliflozin: in the data set with lung cancer A549 cells (setting [13]), the “Tumor growth inhibition rate” value came to 58.4. Moreover, the “Tumor volume ratio of each group to the control group” value with lung cancer A549 cells (setting [13]) is given as 0.416. In the data set on lung cancer A549 cells (A549 tumor-bearing nude mice, gavage once every two days, 40 days, Sotagliflozin 30 mg/kg, Gefitinib 100 mg per kilogram), the Average tumor volume is on record as 430.3. Besides, the “inhibitory effect on tumor volume / tumor growth” value in the data set with lung cancer A549 cells (tumor-bearing mice) is “can inhibit tumor growth; also recorded: good inhibitory effect on tumor volume”. For the same compound, the IC50 came out at 40.8 µM in [2]; 82.3 µM in data set [3]; 82.1 µM in data set [4]; 71.6 µM in data set [5] (Sotagliflozin alone, lung cancer A549 cells, summary value, read-out: IC50); 73 µM in data set [5] (single agent alone, cell survival rate after 1 h of incubation, read-out: IC50 value on A549 cells); 84.5 µM in data set [7]. Besides, the IC50 in data set [8] amounted to 182 µM; in data set [9] (Sotagliflozin alone, liver cancer HepG2 cells, summary value, read-out: IC50) it was 116 µM; in data set [9] (Sotagliflozin alone, cell survival rate after 2 h of incubation, read-out: IC50 value on HepG2 cells) it was 116 µM; in data set [10], 64.8 µM; in [11] it was 48.5 µM. In data set [6], the “concentration at which mainly cell growth inhibition effect is exhibited” value is reported as “lower than 8 μM”. Further, the “concentration producing great cytotoxicity” value in data set [6] is listed as “higher than 80 μM”.
For `N#CC1(c2ccc(NC(=O)c3cccnc3NCc3ccncc3)cc2)CCCC1` [Apatinib], the “inhibitory effect on tumor cells (cell growth inhibition rate)” value in data set [12] is given as “limited”. Also, the IC50 in data set [9] (Homo sapiens, HepG2, Apatinib alone, cell survival rate after 2 h of incubation, read-out: IC50 value on HepG2 cells) turned out to be 46 µM.
